These results are taken from ChEMBL document CHEMBL4680145, “Expansion of chemical space based on a pyrrolo[1,2-a]pyrazine core: Synthesis and its anticancer activity in prostate cancer and breast cancer cells” (Eur J Med Chem, 2020).

pIC50: −log10 of the molar value. Active and inactive are the calls of the source. No cut-off for these calls is given here.

In assay [1] the test system is PC-3. The assay can be described thus: Induction of apoptosis in human PC-3 cells assessed as increase in cleaved PARP incubated for 24 hrs by Western blot analysis. Format: functional, cell-based. Conditions: dose 3-30 µM. (Immunoblotting shows a protein as a band on a membrane.)
The subject of assay [2] is MCF7. The assay can be described thus: Induction of apoptosis in human MCF7 cells assessed as increase in cleaved PARP incubated for 24 hrs by Western blot analysis. Format: functional, cell-based.
In assay [3] the test system is PC-3. The assay is described as follows: Induction of apoptosis in human PC-3 cells assessed as increase in caspase-3 activity at 10 uM incubated for 24 hrs by Hoechst 33342 staining based fluorescence microscopy. The assay is classed as functional, cell-based.
Assay [4] relates to PC-3. The assay can be described thus: Induction of apoptosis in human PC-3 cells assessed as increase in caspase-3 activity at 10 uM incubated for 24 hrs in presence of Ac-DEVD-CHO by Hoechst 33342 dye based fluorescence assay. The assay is classed as functional, cell-based.
Assay [5] relates to PC-3. The assay is described as follows: Cytotoxicity against human PC-3 cells assessed as cell viability at 30 uM incubated for 48 hrs by MTS assay relative to control. The assay is classed as functional. Conditions: read-out: Activity. (Tetrazolium assays rely on reduction of a dye to a coloured formazan, in cell work by metabolically active cells.)
Assay [6] concerns PC-3. The assay is described as follows: Antimigratory activity against human PC-3 cells assessed as reduction in cell migration measured every 2 hrs for 24 hrs by wound healing assay. The assay is classed as functional, cell-based. The following applies: dose 1-10 µM.
The test system of assay [7] is MCF7. The assay is described as follows: Cytotoxicity against human MCF7 cells assessed as cell viability at 30 uM incubated for 48 hrs by MTS assay relative to control. The assay is classed as functional. The following applies: read-out: Activity.
Assay [8] concerns MCF7. The assay can be described thus: Antimigratory activity against human MCF7 cells assessed as reduction in cell migration measured every 2 hrs for 24 hrs by wound healing assay. The assay is classed as functional, cell-based. The following applies: dose 1-10 µM.
Assay [9] relates to PC-3. The assay is described as follows: Cytotoxicity against human PC-3 cells assessed as reduction in cell viability incubated for 48 hrs by MTS assay. The assay is classed as functional, cell-based. The following applies: PC-3, 48 h.
For assay [10], the system named is MCF7. The assay is described as follows: Induction of apoptosis in human MCF7 cells assessed as increase in caspase-3 activity at 10 uM incubated for 24 hrs by Hoechst 33342 staining based fluorescence microscopy. The assay is classed as functional, cell-based.
The test system of assay [11] is MCF7. The assay is described as follows: Induction of apoptosis in human MCF7 cells assessed as increase in caspase-3 activity incubated for 24 hrs by caspase-3 substrate and Hoechst 33342 dye based fluorescence assay. The assay is classed as functional, cell-based. Conditions: dose 1-10 µM.
The test system of assay [12] is PC-3. The assay can be described thus: Induction of apoptosis in human PC-3 cells assessed as increase in caspase-3 activity incubated for 24 hrs by caspase-3 substrate and Hoechst 33342 dye based fluorescence assay. The assay is classed as functional, cell-based. The following applies: dose 1-10 µM.
For assay [13], the system named is MCF7. The assay is described as follows: Induction of apoptosis in human MCF7 cells assessed as increase in caspase-3 activity at 10 uM incubated for 24 hrs in presence of Ac-DEVD-CHO by Hoechst 33342 dye based fluorescence assay. The assay is classed as functional, cell-based.
Assay [14] concerns MCF7. The assay is described as follows: Cytotoxicity against human MCF7 cells assessed as reduction cell viability incubated for 48 hrs by MTS assay. The assay is classed as functional, cell-based. Conditions: MCF7, 48 h.

Turning to `O=C(C[N+]1=Cc2cccn2[C@H](C(=O)c2ccc(F)cc2)[C@H]1c1ccc(Br)cc1)c1ccccc1` (relative stereo), the Activity result in the assay on PC-3 [1], in the assay with MCF7 [2], in the assay with MCF7 [11] and with PC-3 [12] was “Dose-dependent effect” in each case. In addition, the outcome in the assay with PC-3 [3] and in the assay with MCF7 [10] was Active. In addition, the result with PC-3 [4] and in the assay on MCF7 [13] was inactive. Further, the viability at 30 µM in the assay with PC-3 [5] turned out to be 3.4%; in the assay on MCF7 [7] it was 3.6%. Besides, the inhibition result in the assay with PC-3 [6] and in the assay on MCF7 [8] was “Dose-dependent effect” throughout. Besides, the figures for the pIC50 with PC-3 [9] and in the assay on MCF7 [14] were 5.93 and 5.71, respectively.

With `O=C(C[N+]1=Cc2cccn2[C@H](C(=O)c2ccc(Br)cc2)[C@H]1c1ccccc1)c1ccccc1` (relative stereo), the Activity entry with PC-3 [1], in the assay on MCF7 [2], in the assay with MCF7 [11] and with PC-3 [12] was “Dose-dependent effect” in each case. Also, the outcome in the assay on PC-3 [3] and in the assay on MCF7 [10] was Active. Further, the outcome in the assay on PC-3 [4] and in the assay on MCF7 [13] was inactive. For the same compound, the viability at 30 µM with PC-3 [5] was 9.1%; in the assay with MCF7 [7], 25.5%. The inhibition entry in the assay on PC-3 [6] and in the assay on MCF7 [8] was “Dose-dependent effect” throughout. Moreover, the negative-log IC50 (pIC50) – broadly, the IC50 on a negative log10 scale, so that one unit is a factor of ten – was 5.46 in the assay with PC-3 [9] and 5.44 in the assay with MCF7 [14].
